Assay results reported in ChEMBL document CHEMBL5131430, “Free radical scavenging activities of verbascoside and isoverbascoside from the leaves of Odontonema strictum (Acanthaceae)” (Bioorg Med Chem Lett, 2022).
Values after ≈ are worked out from the molar mass of the structure shown.

How the values were obtained:
[1] = Antioxidant activity assessed as hydrogen peroxide scavenging activity; format: functional
[2] = Antioxidant activity assessed as DPPH radical scavenging activity; format: functional

| IC50 [1] [µg/mL] | IC50 [2] [µg/mL] | SMILES |
| --- | --- | --- |
| 2.6 (≈ 4.16 µM) | 0.09 (≈ 0.144 µM) | C[C@@H]1O[C@@H](O[C@@H]2[C@@H](O)[C@H](OCCc3ccc(O)c(O)c3)O[C@H](CO)[C@H]2OC(=O)/C=C/c2ccc(O)c(O)c2)[C@H](O)[C@H](O)[C@H]1O [ACETOSIDE] |
| 4.1 (≈ 23.3 µM) | 0.05 (≈ 0.284 µM) | O=C1O[C@H]([C@@H](O)CO)C(O)=C1O [ASCORBIC ACID] |
| 3 (≈ 4.8 µM) | 0.16 (≈ 0.256 µM) | C[C@@H]1O[C@@H](O[C@@H]2[C@@H](O)[C@H](OCCc3ccc(O)c(O)c3)O[C@H](COC(=O)/C=C/c3ccc(O)c(O)c3)[C@H]2O)[C@H](O)[C@H](O)[C@H]1O [ISOACTEOSIDE] |
